Measurements from patent US20240207240A1, “Method for Improving or Treating Cognitive Dysfunction Complicating HIV-associated Cryptococcal Meningitis with Lenalidomide” (The First Affiliated Hospital Zhejiang University School of …, priority 2022, published 2024).
Several values for one entry are separate records, joined by “and”; a condition that tells them apart may be missing. Equal entries are not always repeated. Where two headings read alike, the source gives them in different places.

What was measured:
CSF cytokines = assay: Detection of inflammatory cytokines in CSF (Human Cytokine/Chemokine/Growth Factor Panel A); format: in vivo; conditions: W 24, after 6 cycles lenalidomide; individual patients P5-P7 (cognitive non-improvement group)
Experimental: Detection of inflammatory cytokines in CSF: CSF samples were collected from the participants and centrifuged immediately; and the supernatant was stored at −80° C. until testing. 32 CSF cytokines were analyzed using the Human Cytokine/Chemokine/Growth Factor Panel A (Merck Millipore, St. Louis, USA): α-2-macroglobulin (α-2-M), apolipoprotein A-I (apoA-I), Apo-E, complement C3, complement factor H (CFH), fibroblast growth factor 2 (FGF-2), granulocyte-colony stimulating factor (G-CSF), granulocyte-macrophage colony-stimulating factor (GM-CSF), interferon-γ (IFN-γ), growth-regulated oncogene (GRO), soluble CD40 ligand (sCD40L), platelet-derived growth factor-AA (PDGF-AA), interleukin (IL)-12p40, IL-12p70, IL-13, IL-1α, IL-1β, IL-2, IL-3, IL-4, IL-6, IL-8, IL-10, IL-17α, monocyte chemoattractant protein-1 (MCP-1), macrophage inflammatory protein-la (MIP-la), MIP-1β, tumor necrosis factor-a (TNF-α), IL-17α, amyloid-β (1-42) (αβ42), total Tau (tTau) and phosphorylated Tau 181 (pTau181), The abbreviations of CSF cytokines are provided in Table 3.

[1] = tested on: intracranial inflammation (CSF WBC, protein, albumin, IgG, glucose, chlorine, pressure); assay: CSF routine and biochemistry analysis; format: in vivo, human; conditions: for Chlorine-W 24 / Protein-W 24 / WBC-W 24 / Glucose-W23 / Δ Protein / ΔChlorine / ΔGlucose / ΔWBC: CSF; for Glucose-W23: after treatment; for Δ Protein / ΔChlorine / ΔGlucose / ΔWBC / ΔICP: week 24 - week 0, median
[2] = tested on: patients with cognitive dysfunction caused by HIV-associated CM-IRIS; format: in vivo, human; conditions: for ΔMoCA: week 24 - week 0, median
[3] = cited from earlier work
[4] = withdrawal for adverse event in the lenalidomide treatment cohort; format: in vivo, human; conditions: of 8 patients with cognitive dysfunction at enrollment
Experimental: Screening process: 14 patients were included in the lenalidomide treatment cohort based on the inclusion and exclusion criteria: 8 had cognitive dysfunction at the time of enrollment. Among them, one patient withdrew from the study due to skin allergy, so only 7 patients were followed up for 24 weeks.
Lenalidomide Treatment: Patients were treated with six cycles of lenalidomide (one cycle: […] for 3 weeks, followed by 1 week ceased lenalidomide) when they were enrolled. The drug was stopped at the end of 6 cycles.

[5] = individual Patients 1-4 (cognitive improvement group)
[6] = individual Patients 5-7 (cognitive non-improvement group)

Nc1cccc2c1CN(C1CCC(=O)NC1=O)C2=O (stereo not drawn) [lenalidomide]
CSF IFN-γ (CSF cytokines): 1.67 pg/mL and 1.01 pg/mL and 0.66 pg/mL | CSF IL-1α (CSF cytokines): 3.37 pg/mL and 1.95 pg/mL and 1.42 pg/mL | CSF IL-1β (CSF cytokines): 2.16 pg/mL and 1.03 pg/mL and 1.13 pg/mL | CSF IL-2 (CSF cytokines): 1.44 pg/mL and 0.7 pg/mL and 0.74 pg/mL | CSF IL-3 (CSF cytokines): 0.82 pg/mL and 0.52 pg/mL and 0.3 pg/mL | CSF IL-4 (CSF cytokines): 2.71 pg/mL and 2.22 pg/mL and 0.49 pg/mL | CSF IL-6 (CSF cytokines): 2.85 pg/mL | CSF IL-8 (CSF cytokines): 234.05 pg/mL and 62.23 pg/mL and 171.82 pg/mL | CSF IL-10 (CSF cytokines): 2.45 pg/mL and 3.7 pg/mL | CSF IL-12p40 (CSF cytokines): 1.65 pg/mL and 1.13 pg/mL and 0.52 pg/mL | CSF IL-12p70 (CSF cytokines): 2.69 pg/mL and 1.25 pg/mL and 1.44 pg/mL | CSF IL-13 (CSF cytokines): 1.91 pg/mL and 0.99 pg/mL and 0.92 pg/mL | CSF IL-17α (CSF cytokines): 1.13 pg/mL and 0.62 pg/mL | CSF IP-10 (CSF cytokines): 13221 pg/mL and 3398 pg/mL and 9823 pg/mL | CSF MCP-1 (CSF cytokines): 3992.12 pg/mL and 981.12 pg/mL and 3011 pg/mL | CSF MIP-1α (CSF cytokines): 3.38 pg/mL and 5 pg/mL | CSF MIP-1β (CSF cytokines): 31.83 pg/mL and 13.92 pg/mL and 17.91 pg/mL | CSF PDGF-AA (CSF cytokines): 6.89 pg/mL and 2.9 pg/mL and 3.99 pg/mL | CSF TNF-α (CSF cytokines): 8.22 pg/mL and 3.01 pg/mL and 5.21 pg/mL | CSF apoA-I (CSF cytokines): 2047.9 pg/mL and 833.9 pg/mL and 1214 pg/mL | CSF pTau 181 (CSF cytokines): 85.14 pg/mL and 48.8 pg/mL and 36.34 pg/mL | CSF sCD40L (CSF cytokines): 2.49 pg/mL | CSF tTau (CSF cytokines): 1309.82 pg/mL and 681.32 pg/mL and 628.5 pg/mL | CSF α-2-M (CSF cytokines): 7109 pg/mL and 2778 pg/mL and 4331 pg/mL | CSF αβ42 (CSF cytokines): 2453 pg/mL and 1168 pg/mL and 1285 pg/mL | change in CSF WBC after lenalidomide treatment ([1]; CI group, P=0.032): significant decline | change in CSF albumin after lenalidomide treatment ([1]; CI group, P=0.034): significant decline | change in CSF protein after lenalidomide treatment ([1]; CI group, P=0.034): significant decline | change in CSF IgG levels after lenalidomide treatment ([1]; CI group, P=0.050): significant decline | Chlorine-W 24 [1, 5]: 128 mmol/L (2×) and 131 mmol/L and 121 mmol/L | Protein-W 24 [1, 5]: 1.081 g/L and 1.24 g/L and 0.745 g/L and 0.788 g/L | WBC-W 24 [1, 5]: 2 ×106/L (2×) and 10 ×106/L and 0 ×106/L | Chlorine-W 24 [1, 6]: 123 mmol/L (2×) and 127 mmol/L | Protein-W 24 [1, 6]: 0.37 g/L and 0.908 g/L and 1.15 g/L | WBC-W 24 [1, 6]: 1e+06 L⁻¹ and 1e+07 L⁻¹ and 7e+06 L⁻¹ | Glucose-W23 [1, 5]: 2.4 mmol/L and 2.5 mmol/L and 3.6 mmol/L and 2.6 mmol/L | Glucose-W23 [1, 6]: 4.7 mmol/L and 2.4 mmol/L and 2.8 mmol/L | Δ Protein ([1]; CI group): -4.4 g/L | ΔChlorine ([1]; CI group): 2.0 mmol/L | ΔGlucose ([1]; CI group): 0.4 mmol/L | ΔWBC ([1]; CI group): -1.18e+08 L⁻¹ | Δ Protein ([1]; CNI group): 0.3 g/L | ΔChlorine ([1]; CNI group): -4.0 mmol/L | ΔGlucose ([1]; CNI group): -0.3 mmol/L | ΔWBC ([1]; CNI group): 7e+06 L⁻¹ | ICP-W 24 [1, 5]: 120 mmH2O and 152 mmH2O and 150 mmH2O and 85 mmH2O | ICP-W 24 [1, 6]: 200 mmH2O and 120 mmH2O and 95 mmH2O | ΔICP ([1]; CI group): 10.0 mmH2O | ΔICP ([1]; CNI group): −20.0 mmH2O | median MoCA score ([2]; W24, after 6 cycles lenalidomide 25 mg/day (21 days on, 7 off), 7 patients, baseline 23.0 (13.0-24.0), P=0.018): 26.0 (24.0-28.0) | memory score in the MoCA ([2]; W24, baseline 1.0 (0-3.0), P=0.026): 4.0 (3.0-5.0) | MoCA-W 24 [2, 5]: 30 scores and 26 scores (2×) and 28 scores | MoCA-W 24 [2, 6]: 24 scores and 25 scores and 19 scores | ΔMoCA ([2]; CI group): 8.5 scores | ΔMoCA ([2]; CNI group): 1.0 scores | bioavailability [3]: high | patients withdrawn from the study due to skin allergy [4]: one
